Values quoted from earlier work, collected in patent US7285563B2, “Heteroaromatic urea derivatives as VR-1 receptor modulators for treating pain” (priority 2002, dated 2007).

Target: VR1 (Rattus norvegicus, UniProt O35433)
Sequence (O35433 whole entry): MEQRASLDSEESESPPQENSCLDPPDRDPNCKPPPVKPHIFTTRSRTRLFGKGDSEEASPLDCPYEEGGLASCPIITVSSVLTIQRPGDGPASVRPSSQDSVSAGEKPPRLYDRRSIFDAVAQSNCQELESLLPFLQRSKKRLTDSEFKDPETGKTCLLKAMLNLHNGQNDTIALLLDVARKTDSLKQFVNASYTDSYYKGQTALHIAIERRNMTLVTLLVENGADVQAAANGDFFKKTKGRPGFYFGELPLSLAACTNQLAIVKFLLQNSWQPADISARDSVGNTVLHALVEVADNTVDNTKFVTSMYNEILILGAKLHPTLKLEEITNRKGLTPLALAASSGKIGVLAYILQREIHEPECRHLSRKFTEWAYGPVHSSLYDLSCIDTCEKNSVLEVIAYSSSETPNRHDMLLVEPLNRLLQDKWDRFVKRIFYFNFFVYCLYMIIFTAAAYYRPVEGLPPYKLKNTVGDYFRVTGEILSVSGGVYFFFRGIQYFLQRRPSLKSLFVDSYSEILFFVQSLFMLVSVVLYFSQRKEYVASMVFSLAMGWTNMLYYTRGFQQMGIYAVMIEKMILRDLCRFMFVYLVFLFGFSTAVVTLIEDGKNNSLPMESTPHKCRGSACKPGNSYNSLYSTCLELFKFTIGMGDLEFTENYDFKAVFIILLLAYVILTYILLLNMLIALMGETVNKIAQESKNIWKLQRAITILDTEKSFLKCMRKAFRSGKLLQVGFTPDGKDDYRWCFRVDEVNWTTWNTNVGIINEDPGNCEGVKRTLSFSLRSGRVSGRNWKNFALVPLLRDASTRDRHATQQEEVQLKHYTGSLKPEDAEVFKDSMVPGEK

affinity for VR1 (Walpole et al., J. Med. Chem., 37:1942, 1994)	SMILES	antagonist of VR1 (Wahl et al., Mol. Pharmacol., 59:9, 2001)
–	C=C(C)[C@]12C[C@@H](C)[C@@]34O[C@](Cc5ccccc5)(O[C@@H]1[C@@H]3C=C(COC(=O)Cc1cc(I)c(O)c(OC)c1)C[C@]1(O)C(=O)C(C)=C[C@@H]41)O2 [Iodo-resiniferatoxin]	nanomolar antagonist
micromolar affinity	Oc1cc2c(cc1O)CN(C(=S)NCCc1ccc(Cl)cc1)CCC2 [capsazepine]	–
